{"source": "patent US10654836B2", "about": "“Pyrimidine derivative, method for preparing same and use thereof in medicine” (Zhejiang Hisun Pharmaceutical Co., Ltd., priority 2016, dated 2020)", "key": {"[1]": {"tested_on": "hepatocellular carcinoma tumor cell Huh7 xenografts", "assay": "Growth inhibition of Huh7 xenografts in tumor-bearing BALB/c nude mice", "assay_type": "in vivo", "settings": "bid", "description": "On day 0, Huh7 cells were cultured in DMEM medium containing 10% of fetal bovine serum, 100 U of penicillin, and 100 μg/mL of streptomycin. And cultured in an incubator of 37° C., 5% CO2.\nEach mouse was inoculated subcutaneously in the right axilla with 150 μL of cell suspension (5.0×10^6 cells/mouse) under sterile conditions. On day 12 after inoculation, when the tumor grew to a volume of 200-300 mm^3, mice with similar tumor volume and good shape were selected (the shape was as single spherical as possible, no irregular shape or multiple tumors gathered together) and divided into 5 groups, each group had 9 mice.\n(§1) Each group of animals was administrated (intraperitoneal injection (ip) or oral administration (po)) a test substance twice a day (bid) at a fix time per day according to the body weight of the animals. The first dose was administered on the day of grouping ([…]), and continued for 22 days, the body weight of the animals was recorded daily.\nThe formation of tumor in the inoculated part of each group of animals was observed. The long diameter (Y) and short diameter (X) of the tumor nodules were measured twice a week using vernier calipers and calculated according to the following formula: Volume of tumor nodules(V): V=(X^2Y)/2.\nEvaluation index of antitumor activity: tumor growth inhibition rate TGI (%), relative tumor proliferation rate T/C (%).\nThe relative tumor volume (RTV) is calculated as: RTV=100×TVt/TVinitial\nwherein, TVinitial is the tumor volume measured at the time of grouping administration; TVt is the tumor volume at each measurement during administration.\nThe calculation formula for the relative tumor proliferation rate (% T/C) is: % T/C=100%×(RTVT/RTVC)\nwherein, RTVT represents RTV of the treatment group; RTVC represents RTV of the solvent control group.\nwherein, TVt(T) represents the tumor volume at each measurement in the treatment group; TVinitial(T) represents the tumor volume of the treatment group at the time of grouping administration; TVt(C) represents the tumor volume at each measurement in the solvent control group; TVinitial(C) represents the tumor volume of the solvent control group at the time of grouping administration.\nwherein, WC represents the tumor weight of the control group; WT represents the tumor weight of the treatment group."}, "[2]": {"tested_on": "hepatocellular carcinoma tumor cells Huh7", "assay": "Huh7 tumor cell proliferation inhibition (CCK-8)", "assay_type": "cell-based, human", "settings": "72 hours culture", "method": "For the FGFR4 subtype, hepatocellular carcinoma tumor cells Huh7 (purchased from the Cell Resource Center of Shanghai Institutes for Biological Sciences, Chinese Academy of Sciences) were used to determine the inhibition against the activity of hepatocellular carcinoma tumor cells. Huh7 cells were cultured in a DMEM medium containing 10% of fetal bovine serum, 100 U of penicillin and 100 μg/mL of streptomycin. Cultured in an incubator of 37° C., 5% CO2. Hepatocellular carcinoma tumor cell activity was measured by using a kit of Cell Counting Kit-8 (Dojindo, Dojindo Molecular Technologies, Inc).\nThe experimental method was carried out according to the steps of the kit instructions, and is briefly described as follows: the test compound was first dissolved in DMSO to prepare a stock solution, and then gradiently diluted with the corresponding medium of the cells to prepare a test sample, and the final concentration of the compound was in the range of 30 μM to 0.01 nM. Tumor cells in the logarithmic phase were seeded into 96-well cell culture plates at a suitable density, cultured in an incubator of 37° C., 5% CO2 overnight, then test compound samples were added and continued to culture the cells for 72 hours."}, "[3]": {"assay": "Body weight and weight loss rate of Huh7 tumor-bearing BALB/c nude mice during administration", "assay_type": "in vivo", "settings": "25 mg/kg IP, bid", "description": "as §1\nThe calculation formula for the weight loss rate of animals is (see FIG. 3 for the results): Weight loss rate of animals=100%×(BWinitial−BWt)/BWinitial\nwherein, BWt represents the body weight of the animal at each measurement during administration; BWinitial represents the body weight of the animal at the time of grouping administration."}, "[4]": {"settings": "25 mg/kg IP, end of the experiment"}}}
{"smiles": "C=CC(=O)Nc1cc(N2CCN(CC)C3(CC3)C2)ccc1Nc1cc(N(C)C(=O)Nc2c(Cl)c(OC)cc(OC)c2Cl)ncn1", "note": "[Example 5, N-(2-((6-(3-(2,6-Dichloro-3,5-dimethoxyphenyl)-1-methylureido)pyrimidin-4-yl)amino)-5-(4-ethyl-4,7-diazaspiro[2.5]octan-7-yl)phenyl)acrylamide]", "values": [{"measurement": "Tumor weight (g) Mean ± standard error", "setting": "[1]; [4]", "value": "0.8393 ± 0.0602", "unit": "g"}, {"measurement": "Tumor weight (g) Mean ± standard error", "setting": "[1]; 50 mg/kg IP, end of the experiment", "value": "0.6473 ± 0.0597", "unit": "g"}, {"measurement": "Tumor weight (g) Mean ± standard error", "setting": "[1]; 300 mg/kg PO, end of the experiment", "value": "0.0562 ± 0.0069", "unit": "g"}]}
{"smiles": "C=CC(=O)Nc1cc(N2CCN(CC)CC2)ccc1Nc1cc(N(C)C(=O)Nc2c(Cl)c(OC)cc(OC)c2Cl)ncn1", "note": "[Example 108 of WO2015057938, reference compound]", "values": [{"measurement": "Tumor growth inhibition rate (TGI %)", "setting": "[1]; 25 mg/kg IP, Day 16 after inoculation", "value": 34, "unit": "%"}, {"measurement": "Tumor growth inhibition rate (TGI %)", "setting": "[1]; 25 mg/kg IP, Day 20 after inoculation", "value": 21, "unit": "%"}, {"measurement": "Tumor growth inhibition rate (TGI %)", "setting": "[1]; 25 mg/kg IP, Day 23 after inoculation", "value": 21, "unit": "%"}, {"measurement": "Tumor growth inhibition rate (TGI %)", "setting": "[1]; 25 mg/kg IP, Day 27 after inoculation", "value": 29, "unit": "%"}, {"measurement": "Tumor growth inhibition rate (TGI %)", "setting": "[1]; 25 mg/kg IP, Day 30 after inoculation", "value": 24, "unit": "%"}, {"measurement": "Tumor growth inhibition rate (TGI %)", "setting": "[1]; 25 mg/kg IP, Day 34 after inoculation", "value": 16, "unit": "%"}, {"measurement": "Tumor weight (g) Mean ± standard error", "setting": "[1]; [4]", "value": "0.9106 ± 0.0583", "unit": "g"}, {"measurement": "Tumor weight inhibition rate (%)", "setting": "[1]; [4]", "value": 2.2, "unit": "%"}, {"measurement": "IC50", "setting": "[2]", "value": 18, "unit": "nM"}, {"measurement": "Animal body weight ± standard error", "setting": "[3]; Day 13 after inoculation", "value": "18.0 ± 0.3", "unit": "g"}, {"measurement": "weight loss rate (%)", "setting": "[3]; Day 13 after inoculation", "value": 0, "unit": "%"}, {"measurement": "Animal body weight ± standard error", "setting": "[3]; Day 16 after inoculation", "value": "18.1 ± 0.3", "unit": "g"}, {"measurement": "weight loss rate (%)", "setting": "[3]; Day 16 after inoculation", "value": "−0.62", "unit": "%"}, {"measurement": "Animal body weight ± standard error", "setting": "[3]; Day 20 after inoculation", "value": "19.2 ± 0.4", "unit": "g"}, {"measurement": "weight loss rate (%)", "setting": "[3]; Day 20 after inoculation", "value": "−6.7", "unit": "%"}, {"measurement": "Animal body weight ± standard error", "setting": "[3]; Day 23 after inoculation", "value": "18.3 ± 0.2", "unit": "g"}, {"measurement": "weight loss rate (%)", "setting": "[3]; Day 23 after inoculation", "value": "−2.0", "unit": "%"}, {"measurement": "Animal body weight ± standard error", "setting": "[3]; Day 27 after inoculation", "value": "18.4 ± 0.3", "unit": "g"}, {"measurement": "weight loss rate (%)", "setting": "[3]; Day 27 after inoculation", "value": "−2.7", "unit": "%"}, {"measurement": "Animal body weight ± standard error", "setting": "[3]; Day 30 after inoculation", "value": "18.7 ± 0.2", "unit": "g"}, {"measurement": "weight loss rate (%)", "setting": "[3]; Day 30 after inoculation", "value": "−4.2", "unit": "%"}, {"measurement": "Animal body weight ± standard error", "setting": "[3]; Day 34 after inoculation", "value": "18.9 ± 0.3", "unit": "g"}, {"measurement": "weight loss rate (%)", "setting": "[3]; Day 34 after inoculation", "value": "−5.0", "unit": "%"}]}
